In the supplement of paper PMC10307832 one finds relative viability data, which are given here for four compounds.

The first assay relates to 201T. The assay can be described thus: relative viability (nuclei count vs DMSO), 5 days (fraction); higher = more cells survive. Conditions: first compound 0.2 µM. The procedure, abridged:
(§1)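 Relative viability equals treated-well nuclei counts divided by vehicle-well nuclei counts. Counts came from 4× images of lung cancer cell lines grown in 1536-well plates for 5 days after pin-tool dosing on the day after seeding. Dosing used one drug alone or a fixed anchor-drug dose plus five library-drug doses (not always all listed) in √10 steps, and values are medians of duplicate plates.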
`COCC1(CO)C(=O)C2CCN1CC2` (stereo unspecified) [PRIMA-1MET] + N=C(N)NC(=N)NCCc1ccccc1 [Phenformin] (partner 250 µM) returned a relative viability of 0.444.

On to `COCC1(CO)C(=O)C2CCN1CC2` (stereo unspecified) [PRIMA-1MET] + CC(=O)c1c(C)c2cnc(Nc3ccc(N4CCNCC4)cn3)nc2n(C2CCCC2)c1=O [Palbociclib] (partner 0.5 µM), for which the relative viability was found to be 0.386.

`COCC1(CO)C(=O)C2CCN1CC2` (stereo unspecified) [PRIMA-1MET] + Cc1nc(Nc2ncc(C(=O)Nc3c(C)cccc3Cl)s2)cc(N2CCN(CCO)CC2)n1 [Dasatinib] (partner 0.075 µM): the relative viability is 0.635.

Turning to `COCC1(CO)C(=O)C2CCN1CC2` (stereo unspecified) [PRIMA-1MET] + O=C(c1cc(Cc2n[nH]c(=O)c3ccccc23)ccc1F)N1CCN(C(=O)C2CC2)CC1 [Olaparib] (partner 8 µM), the relative viability was 0.947.

The assay is the same for the next values; noted with them: first compound 0.6325 µM.
For `COCC1(CO)C(=O)C2CCN1CC2` (stereo unspecified) [PRIMA-1MET] + N=C(N)NC(=N)NCCc1ccccc1 [Phenformin] (partner 250 µM), the relative viability is 0.452.

Consider `COCC1(CO)C(=O)C2CCN1CC2` (stereo unspecified) [PRIMA-1MET] + CC(=O)c1c(C)c2cnc(Nc3ccc(N4CCNCC4)cn3)nc2n(C2CCCC2)c1=O [Palbociclib] (partner 0.5 µM), for which the relative viability was 0.356.

For the compound `COCC1(CO)C(=O)C2CCN1CC2` (stereo unspecified) [PRIMA-1MET] + Cc1nc(Nc2ncc(C(=O)Nc3c(C)cccc3Cl)s2)cc(N2CCN(CCO)CC2)n1 [Dasatinib] (partner 0.075 µM), the relative viability was determined as 0.369.

Consider `COCC1(CO)C(=O)C2CCN1CC2` (stereo unspecified) [PRIMA-1MET] + O=C(c1cc(Cc2n[nH]c(=O)c3ccccc23)ccc1F)N1CCN(C(=O)C2CC2)CC1 [Olaparib] (partner 8 µM), for which the relative viability turned out to be 0.829.

Staying with this assay, now noted: first compound 2 µM.
As to `COCC1(CO)C(=O)C2CCN1CC2` (stereo unspecified) [PRIMA-1MET] + N=C(N)NC(=N)NCCc1ccccc1 [Phenformin] (partner 250 µM), the relative viability was found to be 0.397.

`COCC1(CO)C(=O)C2CCN1CC2` (stereo unspecified) [PRIMA-1MET] + CC(=O)c1c(C)c2cnc(Nc3ccc(N4CCNCC4)cn3)nc2n(C2CCCC2)c1=O [Palbociclib] (partner 0.5 µM) returned a relative viability of 0.331.

Take `COCC1(CO)C(=O)C2CCN1CC2` (stereo unspecified) [PRIMA-1MET] + Cc1nc(Nc2ncc(C(=O)Nc3c(C)cccc3Cl)s2)cc(N2CCN(CCO)CC2)n1 [Dasatinib] (partner 0.075 µM): the relative viability amounted to 0.59.

The compound `COCC1(CO)C(=O)C2CCN1CC2` (stereo unspecified) [PRIMA-1MET] + O=C(c1cc(Cc2n[nH]c(=O)c3ccccc23)ccc1F)N1CCN(C(=O)C2CC2)CC1 [Olaparib] (partner 8 µM) returned a relative viability of 0.808.

Still in this assay, the particulars now being: first compound 6.325 µM.
In turn, `COCC1(CO)C(=O)C2CCN1CC2` (stereo unspecified) [PRIMA-1MET] + N=C(N)NC(=N)NCCc1ccccc1 [Phenformin] (partner 250 µM) yielded a relative viability of 0.452.

For the compound `COCC1(CO)C(=O)C2CCN1CC2` (stereo unspecified) [PRIMA-1MET] + CC(=O)c1c(C)c2cnc(Nc3ccc(N4CCNCC4)cn3)nc2n(C2CCCC2)c1=O [Palbociclib] (partner 0.5 µM), the relative viability came out at 0.352.

Turning to `COCC1(CO)C(=O)C2CCN1CC2` (stereo unspecified) [PRIMA-1MET] + Cc1nc(Nc2ncc(C(=O)Nc3c(C)cccc3Cl)s2)cc(N2CCN(CCO)CC2)n1 [Dasatinib] (partner 0.075 µM), the relative viability came to 0.566.

In turn, `COCC1(CO)C(=O)C2CCN1CC2` (stereo unspecified) [PRIMA-1MET] + O=C(c1cc(Cc2n[nH]c(=O)c3ccccc23)ccc1F)N1CCN(C(=O)C2CC2)CC1 [Olaparib] (partner 8 µM) displayed a relative viability of 0.908.

Still in this assay, the particulars now being: first compound 20 µM.
For the compound `COCC1(CO)C(=O)C2CCN1CC2` (stereo unspecified) [PRIMA-1MET] + N=C(N)NC(=N)NCCc1ccccc1 [Phenformin] (partner 250 µM), the relative viability was 0.464.

`COCC1(CO)C(=O)C2CCN1CC2` (stereo unspecified) [PRIMA-1MET] + CC(=O)c1c(C)c2cnc(Nc3ccc(N4CCNCC4)cn3)nc2n(C2CCCC2)c1=O [Palbociclib] (partner 0.5 µM) returned a relative viability of 0.331.

`COCC1(CO)C(=O)C2CCN1CC2` (stereo unspecified) [PRIMA-1MET] + Cc1nc(Nc2ncc(C(=O)Nc3c(C)cccc3Cl)s2)cc(N2CCN(CCO)CC2)n1 [Dasatinib] (partner 0.075 µM) returned a relative viability of 0.582.

For the compound `COCC1(CO)C(=O)C2CCN1CC2` (stereo unspecified) [PRIMA-1MET] + O=C(c1cc(Cc2n[nH]c(=O)c3ccccc23)ccc1F)N1CCN(C(=O)C2CC2)CC1 [Olaparib] (partner 8 µM), the relative viability turned out to be 0.839.

Another assay relates to ABC-1. The assay is described as above. Conditions: first compound 0.2 µM. The procedure, abridged: as §1
For `COCC1(CO)C(=O)C2CCN1CC2` (stereo unspecified) [PRIMA-1MET] + N=C(N)NC(=N)NCCc1ccccc1 [Phenformin] (partner 250 µM), the relative viability was 0.233.

`COCC1(CO)C(=O)C2CCN1CC2` (stereo unspecified) [PRIMA-1MET] + CC(=O)c1c(C)c2cnc(Nc3ccc(N4CCNCC4)cn3)nc2n(C2CCCC2)c1=O [Palbociclib] (partner 0.5 µM) registered a relative viability of 0.984.

In the case of `COCC1(CO)C(=O)C2CCN1CC2` (stereo unspecified) [PRIMA-1MET] + Cc1nc(Nc2ncc(C(=O)Nc3c(C)cccc3Cl)s2)cc(N2CCN(CCO)CC2)n1 [Dasatinib] (partner 0.075 µM), the relative viability came to 0.705.

In turn, `COCC1(CO)C(=O)C2CCN1CC2` (stereo unspecified) [PRIMA-1MET] + O=C(c1cc(Cc2n[nH]c(=O)c3ccccc23)ccc1F)N1CCN(C(=O)C2CC2)CC1 [Olaparib] (partner 8 µM) came in with a relative viability of 0.993.

The assay is the same for the next values; noted with them: first compound 0.6325 µM.
`COCC1(CO)C(=O)C2CCN1CC2` (stereo unspecified) [PRIMA-1MET] + N=C(N)NC(=N)NCCc1ccccc1 [Phenformin] (partner 250 µM) showed a relative viability of 0.2.

In turn, `COCC1(CO)C(=O)C2CCN1CC2` (stereo unspecified) [PRIMA-1MET] + Cc1nc(Nc2ncc(C(=O)Nc3c(C)cccc3Cl)s2)cc(N2CCN(CCO)CC2)n1 [Dasatinib] (partner 0.075 µM) returned a relative viability of 0.539.
